Results as given in patent US20100113504A1, “AMIDE COMPOUNDS AND THEIR USE AS ANTITUMOR AGENTS” (SIGMA-TAU INDUSTRIE FARMACEUTICHE RIUNITE S.P.A., priority 2007, published 2010).
Where two headings read alike, the source gives them in different places.

Assays:
[1] = rcm bond
[2] = rcm bond, Grubbs II, CH2Cl2, 1.0 mM
[3] = tested on: NB4 human promyelocitic leukaemia; test: Cytotoxicity (sulphorodamine B) on NB4 tumor cells; type: cell-based; conditions: Homo sapiens, NB-4, 24 h treatment, then 48 h in drug-free medium, read-out: IC50 ± SD, NB4
Method: To test the effects of the compounds on cell growth, NB4 human promyelocitic leukaemia, NCI-H460 non-small cell carcinoma cells and HCT-116 human colon carcinoma cells were used. NB4 and NCI-H460 tumor cells were grown RPMI 1640 containing 10% fetal bovine serum (GIBCO), whereas HCT-116 tumor cells were grown in McCoy's 5A containing 10% fetal bovine serum (GIBCO).
(§1) Tumor cells were seeded in 96-well tissue culture plates at approximately 10% confluence and were allowed to attach and recover for at least 24 h. […] The plates were incubated for 24 h at 37° C. At the end of the treatment, for NB4 tumor cells in suspension, the procedure was performed as follows: medium culture was removed by centrifugation of the plates at 1600×g for 10 min and the surnatant was removed. 250 μl PBS were added, then the plates were centrifuged at 1600×g for 10 min, the surnatant was removed. 200 μl/well of medium culture RPMI 1640 containing 10% FCS were added and the plates were incubated at 37° C. for other 48 h. The plates were centrifuged again at 1600×g for 10 min, the medium culture was removed and 200 μl PBS and 50 μl of cold 80% TCA were added. The plates were incubated on ice for at least 1 h. TCA was removed, the plates were washed 3 times for immersion in distilled-water and dried before on paper, then in a thermostater at 40° C. Subsequently 200 μl of 0.4% sulphorodamine B in 1% acetic acid were added. The plates were incubated at room temperature for other 30 min. Sulphorodamine B was removed, the plates were washed for immersion in 1% acetic acid for 3 times, then they were washed and dried on paper. 200 μl Tris 10 mM were added, the plates were kept under stirring for 20 min. The survival cell was determined as optical density by a Multiskan spectrofluorimeter at 540 nm. For the tumor cells in adhesion (NCI-H460 and HCT-116), the procedure was as above mentioned, except that the at the end of the treatment, the plates were washed by remotion of the surnatant and addition of PBS 3 times and not by centrifugation. Also the last day of the assay, the surnatant was removed without centrifugation.
(§2) The amount of cells killed was calculated as the percentage decrease in sulphorodamine B binding compared with control cultures.

[4] = tested on: NCI-H460 non-small cell carcinoma cells; test: Cytotoxicity (sulphorodamine B) on NCI-H460 tumor cells; type: cell-based; conditions: Homo sapiens, 24 h treatment, then 48 h in drug-free medium, read-out: IC50 ± SD, NCI-H460
Method: as §1, with “200 μl/well of medium culture RPMI 1640 containing 10% FCS were added and the plates were incubated at 37° C. for other 48 h.” left out, “For the tumor cells in adhesion (NCI-H460 and HCT-116), the procedure was as above mentioned, except that the at the end of the treatment, the plates were washed by remotion of the surnatant and addition of PBS 3 times and not by centrifugation.” left out
as §2

[5] = tested on: HCT-116 human colon carcinoma cells; test: Cytotoxicity (sulphorodamine B) on HCT-116 tumor cells; type: cell-based; conditions: Homo sapiens, HCT-116 cells, 24 h treatment, then 48 h in drug-free medium, read-out: IC50 ± SD, HCT-116
Method: as §1, with “200 μl/well of medium culture RPMI 1640 containing 10% FCS were added and the plates were incubated at 37° C. for other 48 h.” left out, “For the tumor cells in adhesion (NCI-H460 and HCT-116), the procedure was as above mentioned, except that the at the end of the treatment, the plates were washed by remotion of the surnatant and addition of PBS 3 times and not by centrifugation.” left out
as §2

[6] = tested on: NB4, NCI-H460 and HCT-116 tumor cells; test: Cytotoxicity summarised over the three tumor cell lines; type: cell-based; conditions: Homo sapiens; mean over NB4, NCI-H460, HCT-116; 24 h of treatment
Method: as §1, with “200 μl/well of medium culture RPMI 1640 containing 10% FCS were added and the plates were incubated at 37° C. for other 48 h.” left out, “For the tumor cells in adhesion (NCI-H460 and HCT-116), the procedure was as above mentioned, except that the at the end of the treatment, the plates were washed by remotion of the surnatant and addition of PBS 3 times and not by centrifugation.” left out
as §2

| Compound | IC50 [3] | IC50 [4] | IC50 [5] | IC50 [6] | other results |
| --- | --- | --- | --- | --- | --- |
| COC(=O)CCCCC[C@H]1C(=O)Nc2ccccc2OCCCC=CCN1C(=O)OC(C)(C)C |  |  |  |  | ring closure, yield of all isomers ([1]; from C=CCCCOc1ccccc1NC(=O)[C@H](CCCCCC(=O)OC)N(CC=C)C(=O)OC(C)(C)C): 84% |
| COC(=O)CCCCC[C@H]1C(=O)Nc2ccccc2OCCCCC=CCN1C(=O)OC(C)(C)C |  |  |  |  | ring closure, yield of all isomers ([1]; from C=CCCCCOc1ccccc1NC(=O)[C@H](CCCCCC(=O)OC)N(CC=C)C(=O)OC(C)(C)C): 82% |
| 7-(S)-Allyl-tert-butoxycarbonylamino)-7-(2-hex-5-enyloxyphenylcarbamoyl)heptanoic acid methyl ester |  |  |  |  | ring closure, isolated yield ([2]; the molecule shown is the open-chain precursor, 14-membered ring): 82% |
| 7-(S)-Allyl-tert-butoxycarbonylamino)-7-(2-pent-4-enyloxyphenylcarbamoyl)heptanoic acid methyl ester |  |  |  |  | ring closure, isolated yield ([2]; the molecule shown is the open-chain precursor, 13-membered ring): 84% |
| COC(=O)CCCCCC1OCC=CCC(c2ccc(OC)cc2)Oc2ccccc2NC1=O (racemic) |  |  |  |  | ring closure, isolated yield ([2]; from C=CCOC(CCCCCC(=O)OC)C(=O)Nc1ccccc1OC(CC=C)c1ccc(OC)cc1, 12-membered ring): 45% |
| COC(=O)CCCCCC1OCC=CCCCOc2ccncc2NC1=O (racemic) |  |  |  |  | ring closure, isolated yield ([2]; from C=CCCCOc1ccncc1NC(=O)C(CCCCCC(=O)OC)OCC=C, 13-membered ring): 45%; ring closure, yield of all isomers ([1]; from C=CCCCOc1ccncc1NC(=O)C(CCCCCC(=O)OC)OCC=C): 45% |
| COC(=O)CCCCCC1OCC=Cc2cc(cc(OC)c2)COc2ccccc2NC1=O (racemic) |  |  |  |  | ring closure, isolated yield ([2]; from C=CCOC(CCCCCC(=O)OC)C(=O)Nc1ccccc1OCc1cc(C=C)cc(OC)c1, 14-membered ring): 52% |
| COc1cc(COC(CCCCCC(=O)NO)C(=O)Nc2ccccc2)cc(OC)c1 (racemic) [Compound 9j, (±)-2-(3,5-Dimethoxybenzyloxy)octanedioic acid 8-hydroxyamide 1-phenylamide] | 50 ± 5 nM | 400 ± 70 nM | 300 ± 8 nM | < 1000 nM |  |
| O=C(CCCCCC(OCc1cccc(Oc2ccccc2)c1)C(=O)Nc1ccccc1)NO (racemic) [Compound 9k, (±)-2-(3-Phenoxybenzyloxy)-octanedioic acid 8-hydroxyamide 1-phenylamide] | 200 ± 9 nM | 700 ± 40 nM | 700 ± 80 nM | < 1000 nM |  |
| COc1ccc(NC(=O)C(CCCCCC(=O)NO)OCc2ccccc2)cc1 (racemic) [Compound 9l, (±)-2-Benzyloxyoctanedioic acid 8-hydroxyamide 1-[(4-methoxyphenyl)-amide]] | 200 ± 20 nM | 1000 ± 90 nM | 500 ± 60 nM | < 1000 nM |  |
| COc1ccc(COC(CCCCCC(=O)NO)C(=O)Nc2ccc(OC)cc2)cc1 (racemic) [Compound 9m, (±)-2-(4-Methoxybenzyloxy)octanedioic acid 8-hydroxyamide 1-[(4-methoxyphenyl)amide]] | 100 ± 40 nM | 300 ± 40 nM | 300 ± 10 nM | < 1000 nM |  |
| COc1ccc(COC(CCCCCCC(=O)NO)C(=O)Nc2ccccc2)cc1 (racemic) [Compound 13d, (±)-2-(4-Methoxybenzyloxy)nonanedioic acid 9-hydroxyamide 1-phenylamide] | 300 ± 30 nM | 700 ± 30 nM | 500 ± 100 nM | < 1000 nM |  |
| COc1ccc(CO[C@H](CCCCCC(=O)NO)C(=O)Nc2ccccc2)cc1 [(R)-9d, 2-(R)-(4-Methoxybenzyloxy)octanedioic acid 8-hydroxyamide 1-phenylamide] | 70 ± 10 nM | 500 ± 30 nM | 400 ± 10 nM | < 1000 nM |  |
